Experimental data from ChEMBL document CHEMBL5653599, “AZD1152, a novel and selective aurora B kinase inhibitor, induces growth arrest, apoptosis, and sensitization for tubulin depolymerizing agent or topoisomerase II inhibitor in human acute leukemia cells in vitro and in vivo” (Blood, 2007).
Calls of active or inactive are those of the source. The rule behind the calls is not given here.

Key:
[1] = biological target: Aurora kinase B (Homo sapiens) (UniProt Q96GD4); assay: Inhibition of Aurora B in human MV4-11 cells assessed as decrease in histone H3 phosphorylation at Ser10 at 10 nM incubated for 24 hrs by flow cytometry (reference value: 52 %); format: cell-based; design: scale not given: the % may be the effect or the level left
Aurora kinase B (Homo sapiens), sequence (Q96GD4 whole entry): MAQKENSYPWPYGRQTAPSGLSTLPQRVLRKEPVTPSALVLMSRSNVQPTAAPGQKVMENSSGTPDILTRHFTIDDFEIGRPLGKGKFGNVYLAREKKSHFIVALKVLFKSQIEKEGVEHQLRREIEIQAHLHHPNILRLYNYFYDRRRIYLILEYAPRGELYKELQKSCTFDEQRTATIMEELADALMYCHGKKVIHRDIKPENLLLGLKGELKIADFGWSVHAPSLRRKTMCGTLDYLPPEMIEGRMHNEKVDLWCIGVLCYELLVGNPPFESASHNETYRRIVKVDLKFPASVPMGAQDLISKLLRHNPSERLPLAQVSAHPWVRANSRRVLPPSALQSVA

MOLM-13 [2] = assay: Antitumor activity against human MOLM-13 cells xenografted in immunodeficient nude BALB/c mouse model assessed as decrease in tumor weight at 25 mg/kg, ip administered 4 times a week for 2 weeks measured twice per week (reference value: 583 +/- 150 mg); format: functional
MOLM-13 [3] = assay: Antitumor activity against human MOLM-13 cells xenografted in immunodeficient nude BALB/c mouse model assessed as decrease in tumor volume at 25 mg/kg, ip administered 4 times a week for 2 weeks measured twice per week (reference value: 1261 +/- 200 mm3); format: functional
MOLM-13 [4] = assay: Antitumor activity against human MOLM-13 cells xenografted in immunodeficient nude BALB/c mouse model assessed as suppression of tumor weight at 25 mg/kg, ip administered 4 times a week for 2 weeks measured twice per week; format: functional, organism-based
MOLM-13 [5] = assay: Antitumor activity against human MOLM-13 cells xenografted in immunodeficient nude BALB/c mouse model assessed as reduction in tumor weight at 5 mg/kg, ip administered 4 times a week for 2 weeks in presence of vincristine; format: functional, organism-based
MOLM-13 [6] = assay: Antitumor activity against human MOLM-13 cells xenografted in immunodeficient nude BALB/c mouse model assessed as absence of leukemia cells at 25 mg/kg, ip administered 4 times a week for 2 weeks by H and E staining based analysis; format: functional, organism-based
MOLM-13 [7] = assay: In vivo antiproliferative activity against human MOLM-13 cells xenografted in immunodeficient nude BALB/c mouse model assessed as inhibition of cell proliferation at 5 mg/kg, ip administered 4 times a week for 2 weeks relative to control; format: functional; conditions: MOLM-13, 336 h
MOLM-13 [8] = assay: Antitumor activity against human MOLM-13 cells xenografted in immunodeficient nude BALB/c mouse model assessed as tumor growth inhibition at 5 mg/kg, ip administered 4 times a week for 2 weeks in presence of vincristine relative to control; format: functional; conditions: MOLM-13, 336 h
MOLM-13 [9] = assay: Antitumor activity against human MOLM-13 cells xenografted in immunodeficient nude BALB/c mouse model assessed as necrotic tissue with infiltration of phagocytic cells at 25 mg/kg, ip administered 4 times a week for 2 weeks by H and E staining based analysis; format: functional, organism-based
MOLM-13 [10] = assay: Antitumor activity against human MOLM-13 cells xenografted in immunodeficient nude BALB/c mouse model assessed as reduction in tumor growth at 5 mg/kg, ip administered 4 times a week for 2 weeks in presence of daunorubicin; format: functional, organism-based
[11] = biological target: Aurora kinase B (Homo sapiens) (UniProt Q96GD4); assay: Inhibition of Aurora B in human MOLM-13 cells assessed as decrease in histone H3 phosphorylation at Ser10 at 10 nM incubated for 24 hrs by flow cytometry (reference value: 43 %); format: cell-based; design: scale not given: the % may be the effect or the level left
MOLM-13 [12] = assay: Antitumor activity against human MOLM-13 cells xenografted in immunodeficient nude BALB/c mouse model assessed as suppression of tumor growth at 25 mg/kg, ip administered 4 times a week for 2 weeks measured twice per week; format: functional, organism-based
[13] = biological target: Aurora kinase B (Homo sapiens) (UniProt Q96GD4); conditions: PALL-2, dose <= 10.0 nM, time 24-48 hrs
Description: Inhibition of Aurora B in human PALL-2 cells assessed as increase in 4N/8N DNA content measured for 24 to 48 hrs by FACS analysis

MOLM-13 [14] = assay: Induction of apoptosis in human MOLM-13 cells assessed as early apoptotic cells at 3 nM incubated for 24 hrs by annexin V/PI staining based flow cytometry (reference value: 2.4 %); format: functional
MV4-11 [15] = assay: Inhibition of cell proliferation of human MV4-11 cells incubated for 48 hrs by 3H-thymidine uptake assay; format: functional, cell-based
MOLM-13 [16] = conditions: Homo sapiens, dose 1.0 nM
MOLM-13 [17] = assay: Induction of apoptosis in human MOLM-13 cells assessed as increase in cleaved PARP level at 1 to 3 nM in presence of vincristine by immunoblot analysis; format: functional, cell-based; conditions: dose 1-3 nM
MOLM-13 [18] = assay: Inhibition of clonogenic growth in human MOLM-13 cells incubated for 10 days; format: functional, cell-based; conditions: MOLM-13, 240 h
MOLM-13 [19] = conditions: Homo sapiens, dose 1-10 nM
[20] = Antiproliferative activity against human PALL-2 cells assessed as inhibition of cell proliferation at 3 nM by 3H-thymidine incorporation assay relative to control; format: functional
[21] = biological target: Aurora kinase B (Homo sapiens) (UniProt Q96GD4); conditions: PALL-2, dose <= 10.0 nM, time 24-48 hrs; remark: listed apart in the source
Description: Inhibition of Aurora B in human PALL-2 cells assessed as increase in 4N/8N DNA content upto 10 nM by FACS analysis

MOLM-13 [22] = assay: Induction of apoptosis in human MOLM-13 cells assessed as early apoptotic cells at 1 nM incubated for 24 hrs by annexin V/PI staining based flow cytometry (reference value: 2.4 %); format: functional
MV4-11 [23] = assay: Inhibition of clonogenic growth in human MV4-11 cells incubated for 10 days; format: functional, cell-based; conditions: MV4-11, 240 h
MOLM-13 [24] = assay: Induction of apoptosis in human MOLM-13 cells assessed as increase in cleaved PARP level at 3 to 10 nM in presence of daunorubicin by immunoblot analysis; format: functional, cell-based; conditions: dose 3-10 nM
MOLM-13 [25] = assay: Induction of apoptosis in human MOLM-13 cells assessed as early apoptotic cells at 10 nM incubated for 24 hrs by annexin V/PI staining based flow cytometry (reference value: 2.4 %); format: functional
MOLM-13 [26] = assay: Induction of apoptosis in human MOLM-13 cells assessed as early apoptotic cells at 10 nM incubated for 48 hrs by annexin V/PI staining based flow cytometry (reference value: 3.2 %); format: functional
MOLM-13 [27] = assay: Induction of apoptosis in human MOLM-13 cells assessed as late apoptotic cells at 1 nM incubated for 48 hrs by annexin V/PI staining based flow cytometry (reference value: 1.9 %); format: functional
PALL-2 [28] = assay: Induction of apoptosis in human PALL-2 cells assessed as increase in cleaved PARP level at 1 to 3 nM in presence of vincristine by immunoblot analysis; format: functional, cell-based; conditions: dose 1-3 nM
MOLM-13 [29] = assay: Induction of apoptosis in human MOLM-13 cells assessed as early apoptotic cells at 1 nM incubated for 48 hrs by annexin V/PI staining based flow cytometry (reference value: 3.2 %); format: functional
MOLM-13 [30] = assay: Induction of apoptosis in human MOLM-13 cells assessed as late apoptotic cells at 3 nM incubated for 24 hrs by annexin V/PI staining based flow cytometry (reference value: 2.2 %); format: functional
[31] = Inhibition of cell proliferation of human PALL-2 cells incubated for 48 hrs by 3H-thymidine uptake assay; format: functional, cell-based
[32] = Synergistic antiproliferative activity against human PALL-2 cells assessed as inhibition of cell proliferation at 0.3 to 3 nM in presence of vincristine by 3H-thymidine incorporation assay relative to control; format: functional; conditions: dose 0.3-3 nM
MOLM-13 [33] = assay: Induction of apoptosis in human MOLM-13 cells assessed as late apoptotic cells at 10 nM incubated for 48 hrs by annexin V/PI staining based flow cytometry (reference value: 1.9 %); format: functional
[34] = biological target: Aurora kinase B (Homo sapiens) (UniProt Q96GD4); conditions: MOLM-13, dose <= 10.0 nM, time 24-48 hrs
Description: Inhibition of Aurora B in human MOLM-13 cells assessed as increase in 4N/8N DNA content measured for 24 to 48 hrs by FACS analysis

MOLM-13 [35] = assay: Inhibition of cell proliferation of human MOLM-13 cells incubated for 48 hrs by 3H-thymidine uptake assay; format: functional, cell-based
MOLM-13 [36] = assay: Induction of apoptosis in human MOLM-13 cells assessed as late apoptotic cells at 10 nM incubated for 24 hrs by annexin V/PI staining based flow cytometry (reference value: 2.2 %); format: functional
MOLM-13 [37] = assay: Induction of apoptosis in human MOLM-13 cells assessed as early apoptotic cells at 3 nM incubated for 48 hrs by annexin V/PI staining based flow cytometry (reference value: 3.2 %); format: functional
[38] = biological target: Aurora kinase B (Homo sapiens) (UniProt Q96GD4); conditions: MOLM-13, dose <= 10.0 nM, time 24-48 hrs; remark: listed apart in the source
Description: Inhibition of Aurora B in human MOLM-13 cells assessed as increase in 4N/8N DNA content upto 10 nM by FACS analysis

MOLM-13 [39] = assay: Induction of apoptosis in human MOLM-13 cells assessed as late apoptotic cells at 3 nM incubated for 48 hrs by annexin V/PI staining based flow cytometry (reference value: 1.9 %); format: functional
MOLM-13 [40] = assay: Induction of apoptosis in human MOLM-13 cells assessed as late apoptotic cells at 1 nM incubated for 24 hrs by annexin V/PI staining based flow cytometry (reference value: 2.2 %); format: functional
[41] = Antiproliferative activity against human PALL-2 cells assessed as inhibition of cell proliferation at 0.3 uM by 3H-thymidine incorporation assay relative to control; format: functional
MOLM-13 [42] = assay: In vivo antiproliferative activity against human MOLM-13 cells xenografted in immunodeficient nude BALB/c mouse model assessed as inhibition of cell proliferation at 0.2 mg/kg, ip administered for 2 weeks on every another day for first week relative to control; format: functional; conditions: MOLM-13, 336 h
MOLM-13 [43] = assay: Induction of apoptosis in human MOLM-13 cells assessed as increase in cleaved PARP level by immunoblot analysis; format: functional, cell-based; conditions: dose 0.1-1 µM
PALL-2 [44] = assay: Induction of apoptosis in human PALL-2 cells assessed as increase in cleaved PARP level by immunoblot analysis; format: functional, cell-based; conditions: dose 0.1-1 µM
[45] = Toxicity in immunodeficient nude BALB/c mouse model xenografted with human MOLM-13 cells assessed as signs of toxicity at 25 mg/kg, ip administered 4 times a week for 2 weeks measured twice per week; format: organism-based; conditions: in vivo, 336 h
[46] = Toxicity in immunodeficient nude BALB/c mouse model xenografted with human MOLM-13 cells assessed as signs of body wasting at 25 mg/kg, ip administered 4 times a week for 2 weeks measured twice per week; format: organism-based; conditions: in vivo, 336 h
[47] = Toxicity in immunodeficient nude BALB/c mouse model xenografted with human MOLM-13 cells assessed as signs of body wasting at 5 mg/kg, ip administered 4 times a week for 2 weeks in presence of vincristine; format: organism-based; conditions: in vivo, 336 h
[48] = Toxicity in immunodeficient nude BALB/c mouse model xenografted with human MOLM-13 cells at 1 mg/kg, ip administered 6 times in 2 weeks; format: organism-based; conditions: in vivo, 336 h

CCN(CCCOc1ccc2c(Nc3cc(CC(=O)Nc4cccc(F)c4)[nH]n3)ncnc2c1)CCOP(=O)(O)O [BARASERTIB]
Activity [1]: 19% | Activity (MOLM-13 [2]): 78 mg | Activity (MOLM-13 [3]): 71 mm3 | Activity (MOLM-13 [4]): Active | Activity (MOLM-13 [5]): Active | Activity (MOLM-13 [6]): Active | inhibition in vivo at 5 mg/kg (MOLM-13 [7]): ~50% | inhibition in vivo at 5 mg/kg (MOLM-13 [8]): ~100% | Activity (MOLM-13 [9]): Active | Activity (MOLM-13 [10]): Active | Activity [11]: 25% | Activity (MOLM-13 [12]): Active

CCN(CCO)CCCOc1ccc2c(Nc3cc(CC(=O)Nc4cccc(F)c4)[nH]n3)ncnc2c1 [DEFOSBARASERTIB]
inhibition [13]: Dose-Dependent Effect | Activity (MOLM-13 [14]): 3.4% | IC50 (MV4-11 [15]): 8 nM | inhibition (MOLM-13 [16]): Active | Activity (MOLM-13 [17]): Active | IC50 (MOLM-13 [18]): 1 nM | inhibition (MOLM-13 [19]): Active | inhibition at 0.003 µM [20]: ~35% | inhibition [21]: Tde | Activity (MOLM-13 [22]): 3.1% | IC50 (MV4-11 [23]): 2.8 nM | Activity (MOLM-13 [24]): Active | Activity (MOLM-13 [25]): 6.5% | Activity (MOLM-13 [26]): 36% | Activity (MOLM-13 [27]): 3.8% | Activity (PALL-2 [28]): Active | Activity (MOLM-13 [29]): 1.9% | Activity (MOLM-13 [30]): 3.8% | IC50 [31]: 5 nM | inhibition (INH) [32]: ~80% | Activity (MOLM-13 [33]): 15% | inhibition [34]: Dose-Dependent Effect | IC50 (MOLM-13 [35]): 12 nM | Activity (MOLM-13 [36]): 7.1% | Activity (MOLM-13 [37]): 2.2% | inhibition [38]: Tde | Activity (MOLM-13 [39]): 3.5% | Activity (MOLM-13 [40]): 4.3%

CC[C@]1(O)C[C@H]2CN(CCc3c([nH]c4ccccc34)[C@@](C(=O)OC)(c3cc4c(cc3OC)N(C=O)[C@H]3[C@@](O)(C(=O)OC)[C@H](OC(C)=O)[C@]5(CC)C=CCN6CC[C@]43[C@@H]65)C2)C1 [VINCRISTINE]
inhibition at 0.3 µM [41]: ~35% | inhibition in vivo at 0.2 mg/kg (MOLM-13 [42]): ~50% | Activity (MOLM-13 [43]): Dose-Dependent Effect | Activity (PALL-2 [44]): Dose-Dependent Effect

CCN(CCCOc1ccc2c(Nc3cc(CC(=O)Nc4cccc(F)c4)n[nH]3)ncnc2c1)CCOP(=O)(O)O [BARASERTIB]
Activity [45]: Non-Toxic | Activity [46]: Non-Toxic | Activity [47]: Non-Toxic

COc1cccc2c1C(=O)c1c(O)c3c(c(O)c1C2=O)C[C@@](O)(C(C)=O)C[C@@H]3O[C@H]1C[C@H](N)[C@H](O)[C@H](C)O1 [DAUNORUBICIN]
Activity [48]: Toxic
